The results in this text go back to ChEMBL document CHEMBL3091315, “PDE2 inhibition: potential for the treatment of cognitive disorders” (Bioorg Med Chem Lett, 2013).

The nature of data set [1]: Drug uptake in Wistar rat striatum at 0.03 mg/kg, iv after 5 mins by LC-MS analysis. It counts as ADME, organism-based. Further details: dose 0.03 mg/kg, route intravenous. Particulars: read-out: Drug uptake.
The species named for data set [2] is Homo sapiens. Description: Selectivity ratio of IC50 for human PDE10A to IC50 for human PDE2A.
The nature of data set [3]: Ratio of unbound drug level in brain to plasma in rat. Particulars: brain and plasma (unbound), read-out: K(p,uu,brain).
Data set [4] addresses T1, cGMP-dependent 3',5'-cyclic phosphodiesterase (Homo sapiens, UniProt O00408). The data set is classed as cell-based, SF-21.
Description: Inhibition of recombinant PDE2A (unknown origin) expressed in baculovirus infected insect SF-21 cells using [3H]-cAMP as substrate after 30 mins by liquid scintillation counting analysis
In data set [5] the target is T2, cAMP and cAMP-inhibited cGMP 3',5'-cyclic phosphodiesterase 10A (Homo sapiens, UniProt Q9Y233).
T2 sequence (Q9Y233 whole entry): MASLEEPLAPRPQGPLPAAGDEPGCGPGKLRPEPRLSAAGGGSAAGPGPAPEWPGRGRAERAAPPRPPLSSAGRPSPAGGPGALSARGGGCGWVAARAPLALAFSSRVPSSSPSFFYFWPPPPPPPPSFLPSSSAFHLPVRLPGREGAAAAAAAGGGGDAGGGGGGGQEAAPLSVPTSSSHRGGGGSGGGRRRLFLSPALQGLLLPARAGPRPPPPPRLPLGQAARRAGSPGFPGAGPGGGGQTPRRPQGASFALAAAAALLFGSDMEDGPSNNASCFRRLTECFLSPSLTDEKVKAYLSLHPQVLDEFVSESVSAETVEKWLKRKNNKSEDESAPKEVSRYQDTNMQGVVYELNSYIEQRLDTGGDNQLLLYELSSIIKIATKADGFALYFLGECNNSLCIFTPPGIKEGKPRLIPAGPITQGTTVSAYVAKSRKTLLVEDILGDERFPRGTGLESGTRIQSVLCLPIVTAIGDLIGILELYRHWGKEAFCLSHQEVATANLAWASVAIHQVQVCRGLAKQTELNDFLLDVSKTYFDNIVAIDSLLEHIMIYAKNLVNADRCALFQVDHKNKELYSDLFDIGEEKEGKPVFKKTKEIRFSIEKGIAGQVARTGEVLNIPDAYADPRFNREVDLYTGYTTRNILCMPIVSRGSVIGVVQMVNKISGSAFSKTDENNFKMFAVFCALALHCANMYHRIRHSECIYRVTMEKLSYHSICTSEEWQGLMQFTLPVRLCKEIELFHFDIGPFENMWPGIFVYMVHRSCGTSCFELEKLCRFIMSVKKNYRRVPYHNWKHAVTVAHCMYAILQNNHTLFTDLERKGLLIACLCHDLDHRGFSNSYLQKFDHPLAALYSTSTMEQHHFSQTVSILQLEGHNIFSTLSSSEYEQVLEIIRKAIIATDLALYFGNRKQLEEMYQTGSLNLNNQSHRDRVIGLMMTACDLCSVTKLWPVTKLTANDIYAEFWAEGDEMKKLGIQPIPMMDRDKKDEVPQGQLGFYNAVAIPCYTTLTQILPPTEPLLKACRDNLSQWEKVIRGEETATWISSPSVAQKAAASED
Description: Inhibition of PDE10A (unknown origin) using tritium labeled cAMP as substrate after 1 hr by scintillation proximity assay
For data set [6], the target named is T1, cGMP-dependent 3',5'-cyclic phosphodiesterase.
Description: Inhibition of PDE2A (unknown origin) using tritium labeled cAMP as substrate after 1 hr by scintillation proximity assay
Data set [7] can be described thus: Clearance in iv dosed rat. The note with it: in vivo. It counts as ADME, organism-based.
Data set [8] can be described thus: Half life in iv dosed rat. The data set is classed as ADME, organism-based. The note with it: in vivo.
Data set [9] concerns Cerebellum. The data set can be described thus: Biodistribution in cerebellum of rat measured at 10 mins by microPET image analysis. It counts as ADME, organism-based. Particulars: in vivo.
Data set [10] concerns Cerebellum. Description: Biodistribution in cerebellum of rat measured at 2 mins by microPET image analysis. The note with it: in vivo. It counts as ADME, organism-based.
Data set [11] relates to Cerebrum. The data set can be described thus: Biodistribution in cerebrum of rat measured at 10 mins by microPET image analysis. Particulars: in vivo. It counts as ADME, organism-based.
Data set [12] deals with Cerebrum. Description: Biodistribution in cerebrum of rat measured at 2 mins by microPET image analysis. The data set is classed as ADME, organism-based. Particulars: in vivo.
The species named for data set [13] is Homo sapiens. Description: Selectivity ratio of IC50 for PDE9A (unknown origin) to IC50 for full length recombinant human PDE2A. The note with it: tested as the 18F-labelled form.
For data set [14], the species on record is Homo sapiens. Description: Selectivity ratio of IC50 for PDE11 (unknown origin) to IC50 for full length recombinant human PDE2A. Particulars: tested as the 18F-labelled form.
The species entered for data set [15] is Homo sapiens. Description: Selectivity ratio of IC50 for PDE8B (unknown origin) to IC50 for full length recombinant human PDE2A. The note with it: tested as the 18F-labelled form.
The species named for data set [16] is Homo sapiens. The data set can be described thus: Selectivity ratio of IC50 for PDE7B (unknown origin) to IC50 for full length recombinant human PDE2A. The note with it: tested as the 18F-labelled form.
The species named for data set [17] is Homo sapiens. Description: Selectivity ratio of IC50 for PDE6A (unknown origin) to IC50 for full length recombinant human PDE2A. Particulars: tested as the 18F-labelled form.
The species named for data set [18] is Homo sapiens. Description: Selectivity ratio of IC50 for PDE4D (unknown origin) to IC50 for full length recombinant human PDE2A. The note with it: tested as the 18F-labelled form.
The species entered for data set [19] is Homo sapiens. Description: Selectivity ratio of IC50 for PDE5A (unknown origin) to IC50 for full length recombinant human PDE2A. Particulars: tested as the 18F-labelled form.
The species entered for data set [20] is Homo sapiens. Description: Selectivity ratio of IC50 for PDE3A (unknown origin) to IC50 for full length recombinant human PDE2A. Particulars: tested as the 18F-labelled form.
The species named for data set [21] is Homo sapiens. Description: Selectivity ratio of IC50 for PDE1B (unknown origin) to IC50 for full length recombinant human PDE2A. The note with it: tested as the 18F-labelled form.
The species entered for data set [22] is Bos taurus. Description: Inhibition of bovine vascular smooth muscle PDE4 using cAMP/cGMP as substrate at 10 uM relative to control. The data set is classed as tissue-based. Particulars: Muscle tissue.
The species entered for data set [23] is Bos taurus. The data set can be described thus: Inhibition of bovine vascular smooth muscle PDE3 using cAMP/cGMP as substrate at 10 uM relative to control. It counts as tissue-based. The note with it: Muscle tissue.
The nature of data set [24]: Selectivity ratio of IC50 for PDE (unknown origin) to IC50 for porcine/bovine heart myocardium PDE2. The data set is classed as tissue-based.
Data set [25] is described as follows: Selectivity ratio of IC50 for porcine/bovine PDE1C to IC50 for porcine/bovine heart myocardium PDE2. The data set is classed as tissue-based.
The nature of data set [26]: Inhibition of pig/bovine heart myocardium PDE2 after 15 mins by scintillation proximity assay in presence of [3H]-cAMP. It counts as tissue-based. A general note: SPA uses beads or plates that emit light when radiolabelled molecules are held near them.
For data set [27], the target named is T2, cAMP and cAMP-inhibited cGMP 3',5'-cyclic phosphodiesterase 10A. Description: Inhibition of recombinant PDE10A (unknown origin) expressed in baculovirus infected insect SF-21 cells using [3H]-cAMP as substrate after 30 mins by liquid scintillation counting analysis.

T1 sequence (O00408 whole entry): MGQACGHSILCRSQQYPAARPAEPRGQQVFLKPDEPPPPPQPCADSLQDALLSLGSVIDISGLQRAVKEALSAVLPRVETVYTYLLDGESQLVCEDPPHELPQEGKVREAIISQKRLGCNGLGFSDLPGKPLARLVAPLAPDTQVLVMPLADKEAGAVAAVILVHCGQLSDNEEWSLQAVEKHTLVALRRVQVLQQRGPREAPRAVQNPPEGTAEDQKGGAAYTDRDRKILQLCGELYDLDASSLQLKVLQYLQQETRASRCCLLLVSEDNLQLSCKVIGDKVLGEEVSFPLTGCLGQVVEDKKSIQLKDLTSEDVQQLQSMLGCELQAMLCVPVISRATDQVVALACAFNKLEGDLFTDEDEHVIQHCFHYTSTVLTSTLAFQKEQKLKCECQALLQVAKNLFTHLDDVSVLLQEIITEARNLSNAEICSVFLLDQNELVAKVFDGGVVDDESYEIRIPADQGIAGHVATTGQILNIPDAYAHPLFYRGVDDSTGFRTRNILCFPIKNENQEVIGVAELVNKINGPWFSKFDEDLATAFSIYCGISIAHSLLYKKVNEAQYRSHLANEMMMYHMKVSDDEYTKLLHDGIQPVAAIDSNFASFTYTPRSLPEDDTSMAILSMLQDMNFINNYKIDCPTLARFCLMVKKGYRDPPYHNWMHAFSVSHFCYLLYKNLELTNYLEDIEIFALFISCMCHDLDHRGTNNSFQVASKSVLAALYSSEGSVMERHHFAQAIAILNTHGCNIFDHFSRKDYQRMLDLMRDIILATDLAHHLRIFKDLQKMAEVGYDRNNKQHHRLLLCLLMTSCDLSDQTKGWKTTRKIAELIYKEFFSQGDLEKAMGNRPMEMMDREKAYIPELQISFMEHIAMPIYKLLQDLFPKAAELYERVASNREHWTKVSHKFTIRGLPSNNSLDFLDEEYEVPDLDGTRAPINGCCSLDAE

As to `Cc1nc2ccc(CN3CCOCC3)cc2n2c(-c3ccccc3Cl)nnc12`, the concentration at 5 min in data set [1] amounted to 70 ng/g. Also, in the data set listed under Homo sapiens [2], the Ratio IC50 is above 600.

`Cc1nc(-c2cnn(C)c2-c2ccc(C(F)(F)F)cn2)c2c(N3CCC3)ncnn12` [PF-05180999]: the Kp uu in data set [3] was 0.5.

What is called IC50 is the concentration at which inhibition is half-maximal. The compound `COc1ccc2nnc3c(C)nc(-c4ccccc4Cl)n3c2n1` displayed an IC50 in [4] of 4 nM.

As for `COc1cccc2nc(C)c3nnc(-c4ccccc4Cl)n3c12`, the IC50 came to 9 nM in data set [5] and 6 nM in data set [6].

Broadly, the clearance is the rate of elimination divided by the concentration. Read a high clearance as efficient removal. A word on the half-life: it is the time needed for the level to fall by half in the phase considered. Low values mean rapid decline, high ones slow decline. `CCC(CC)c1nn(CCO)c2c1N=C(c1ccc(-n3ccnc3C)cc1)CNC2=O` returned a clearance in data set [7] of 70 mL/min/kg. In data set [8], this compound showed a half-life of 0.5 h.

As to `Cc1nc2ccc(CN3CCOCC3)cc2n2c(-c3c([18F])cccc3Cl)nnc12`, the Drug uptake in the data set with Cerebellum [9] is recorded as 82%; in the data set on Cerebellum [10] it was 96%; with Cerebrum [11], 92%; in the data set on Cerebrum [12], 96%.

For `Cc1nc(-c2cnn(C)c2-c2ccc(C(F)(F)F)cc2)c2c(N3CC(F)C3)ncnn12`, the Ratio IC50 in the data set listed under Homo sapiens [13], in the data set listed under Homo sapiens [14], in the data set filed under Homo sapiens [15], in the data set filed under Homo sapiens [16], in the data set listed under Homo sapiens [17] and in the data set filed under Homo sapiens [18] was above 20000 each time. For the same compound, the Ratio IC50 in the data set listed under Homo sapiens [19], in the data set filed under Homo sapiens [20] and in the data set listed under Homo sapiens [21] was above 20000 throughout.

By inhibition is commonly meant the share of the control response that was lost under treatment. Take `COc1cc2c(cc1-c1ccccc1)C(c1cccc(C(N)=O)c1)=NCC(=O)N2C`: the inhibition in the data set filed under Bos taurus [22] was found to be 14%; in the data set listed under Bos taurus [23] it was 23%.

`COc1ncc(-c2cc(C3=Nc4c(C(C)(C)C)nn(CCO)c4C(=O)NC3)ccc2OC)cn1`: in data set [7], the clearance was determined as 27 mL/min/kg. The compound also gave a half-life in data set [8] of 1.5 h.

Consider `COc1ccc(Cc2nc(O)c3c(C)nc([C@@H](CCCc4ccccc4)[C@@H](C)O)n3n2)cc1OC`, for which the Ratio IC50 in data set [24] was above 100; in data set [25] it was 50. Also, in data set [26], the half-inhibitory concentration (IC50) came out at 2 nM.

On to `Cc1ccc2nc(C)c3nnc(-c4cc(OCCCC(F)(F)F)ccc4Cl)n3c2c1`, for which the IC50 in data set [27] was above 1000 nM.
